Results taken from PubChem BioAssay AID248 (DTP/NCI, 2004).
Where “and” joins values, the source holds several entries; their conditions need not be identical. Identical values can stand only once. Toxic doses and inconclusive results are not listed. No stated cut-off is given here; in the data, active means T/C of 150% or more; inactive means T/C below 125%.

Test system: L1210 leukemia ip in BDF1 mice, survival T/C
Test: NCI In Vivo Anticancer Drug Screen. Data for tumor model L1210 Leukemia (intraperitoneal) in B6D2F1 (BDF1) mice
Details: higher = longer survival
How it was run: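 Survival endpoint. Drug-treated group vs vehicle group, expressed as T divided by C. Tumor passaged by transplantation.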

Measured: T/C

O=NN(CCCl)C(=O)NC1CCCCC1
inactive: endpoint: mean survival time, dose: 9.3 mg/kg/injection, schedule: Q## X004 (ip), vehicle: carboxymethylcellulose (CMC) 112 % of control | endpoint: mean survival time, dose: 9.37 mg/kg/injection, schedule: Q01DX001 (ip), vehicle: saline 102 % of control | endpoint: mean survival time, dose: 10.0 mg/kg/injection, schedule: Q01DX001 (ip), vehicle: carboxymethylcellulose (CMC) 116 % of control | endpoint: mean survival time, dose: 10.0 mg/kg/injection, schedule: Q## X032 (ip), vehicle: carboxymethylcellulose (CMC) 122 % of control | endpoint: mean survival time, dose: 18.75 mg/kg/injection, schedule: Q01DX001 (ip), vehicle: saline 109 % of control | endpoint: mean survival time, dose: 25.0 mg/kg/injection, schedule: Q03HX008 (ip), vehicle: carboxymethylcellulose (CMC) 112 % of control | endpoint: mean survival time, dose: 32.0 mg/kg/injection, schedule: Q01DX005 (oral), vehicle: saline 121 % of control | endpoint: mean survival time, dose: 50.0 mg/kg/injection, schedule: Q01DX Z (ip), vehicle: carboxymethylcellulose (CMC) 118 % of control | endpoint: mean survival time, dose: 62.0 mg/kg/injection, schedule: Q01DX Z (ip), vehicle: carboxymethylcellulose (CMC) 92 % of control | endpoint: mean survival time, dose: 97.0 mg/kg/injection, schedule: Q01DX001 (oral), vehicle: carboxymethylcellulose (CMC) 95 % of control | endpoint: mean survival time, dose: 100.0 mg/kg/injection, schedule: Q01DX001 (ip), vehicle: saline 104 % of control | endpoint: mean survival time, dose: 100.0 mg/kg/injection, schedule: Q01DX001 (oral), vehicle: saline 95 % of control | endpoint: mean survival time, dose: 112.0 mg/kg/injection, schedule: Q## X008 (ip), vehicle: carboxymethylcellulose (CMC) 121 % of control | endpoint: mean survival time, dose: 112.0 mg/kg/injection, schedule: Q## X015 (ip), vehicle: carboxymethylcellulose (CMC) 119 % of control | endpoint: mean survival time, dose: 200.0 mg/kg/injection, schedule: Q01DX001 (ip), vehicle: Klucel (hydroxypropylcellulose) (HPC) 110 % of control | endpoint: mean survival time, dose: 200.0 mg/kg/injection, schedule: Q01DX001 (ip), vehicle: carboxymethylcellulose (CMC) 104 % of control | endpoint: mean survival time, dose: 400.0 mg/kg/injection, schedule: Q01DX001 (ip), vehicle: carboxymethylcellulose (CMC) 93 % of control | endpoint: median survival time, dose: 12.5 mg/kg/injection, schedule: Q01DX001 (ip), vehicle: saline with Tween-80 99 % of control and 100 % of control | endpoint: median survival time, dose: 25.0 mg/kg/injection, schedule: Q01DX001 (ip), vehicle: saline with Tween-80 100 % of control and 101 % of control | endpoint: median survival time, dose: 50.0 mg/kg/injection, schedule: Q01DX001 (ip), vehicle: saline with Tween-80 112 % of control and 113 % of control | endpoint: median survival time, dose: 200.0 mg/kg/injection, schedule: Q01DX001 (ip), vehicle: saline with Tween-80 112 % of control and 113 % of control
active: endpoint: mean survival time, dose: 9.0 mg/kg/injection, schedule: Q01DX003 (ip), vehicle: carboxymethylcellulose (CMC) 154 % of control | endpoint: mean survival time, dose: 10.0 mg/kg/injection, schedule: Q01DX001 (iv), vehicle: clinical formulation 160 % of control | endpoint: mean survival time, dose: 12.5 mg/kg/injection, schedule: Q01DX009 (ip), vehicle: Klucel (hydroxypropylcellulose) (HPC) 172 % of control | endpoint: mean survival time, dose: 12.5 mg/kg/injection, schedule: Q01DX Z (ip), vehicle: carboxymethylcellulose (CMC) 156 % of control | endpoint: mean survival time, dose: 12.5 mg/kg/injection, schedule: Q03HX024 (ip), vehicle: carboxymethylcellulose (CMC) 154 % of control | endpoint: mean survival time, dose: 15.0 mg/kg/injection, schedule: Q01DX001 (iv), vehicle: Klucel (hydroxypropylcellulose) (HPC) 152 % of control | endpoint: mean survival time, dose: 16.0 mg/kg/injection, schedule: Q01DX009 (ip), vehicle: saline with Tween-80 161 % of control | endpoint: mean survival time, dose: 16.0 mg/kg/injection, schedule: Q01DX Z (ip), vehicle: carboxymethylcellulose (CMC) 158 % of control | endpoint: mean survival time, dose: 16.0 mg/kg/injection, schedule: Q03HX003 (oral), vehicle: saline 161 % of control | endpoint: mean survival time, dose: 18.0 mg/kg/injection, schedule: Q01DX001 (ip), vehicle: carboxymethylcellulose (CMC) 159 % of control | endpoint: mean survival time, dose: 18.5 mg/kg/injection, schedule: Q01DX001 (ip), vehicle: carboxymethylcellulose (CMC) 153 % of control | endpoint: mean survival time, dose: 20.0 mg/kg/injection, schedule: Q01DX001 (ip), vehicle: carboxymethylcellulose (CMC) 160 % of control | endpoint: mean survival time, dose: 20.0 mg/kg/injection, schedule: Q04DX004 (ip), vehicle: Klucel (hydroxypropylcellulose) (HPC) 162 % of control | endpoint: mean survival time, dose: 22.0 mg/kg/injection, schedule: Q01DX001 (ip), vehicle: carboxymethylcellulose (CMC) 156 % of control | endpoint: mean survival time, dose: 22.0 mg/kg/injection, schedule: Q01DX001 (iv), vehicle: saline 165 % of control | endpoint: mean survival time, dose: 30.0 mg/kg/injection, schedule: Q01DX001 (ip), vehicle: saline 156 % of control | endpoint: mean survival time, dose: 50.0 mg/kg/injection, schedule: Q07DX Z (ip), vehicle: carboxymethylcellulose (CMC) 158 % of control | endpoint: mean survival time, dose: 50.0 mg/kg/injection, schedule: Q## X004 (ip), vehicle: carboxymethylcellulose (CMC) 160 % of control | endpoint: mean survival time, dose: 50.0 mg/kg/injection, schedule: Q## X015 (ip), vehicle: carboxymethylcellulose (CMC) 171 % of control | endpoint: mean survival time, dose: 75.0 mg/kg/injection, schedule: Q## X008 (ip), vehicle: carboxymethylcellulose (CMC) 163 % of control | endpoint: mean survival time, dose: 100.0 mg/kg/injection, schedule: Q01DX001 (ip), vehicle: carboxymethylcellulose (CMC) 164 % of control | endpoint: mean survival time, dose: 112.0 mg/kg/injection, schedule: Q01DX001 (ip), vehicle: carboxymethylcellulose (CMC) 164 % of control | endpoint: mean survival time, dose: 112.0 mg/kg/injection, schedule: Q## X001 (ip), vehicle: carboxymethylcellulose (CMC) 152 % of control | endpoint: mean survival time, dose: 200.0 mg/kg/injection, schedule: Q01DX001 (oral), vehicle: carboxymethylcellulose (CMC) 159 % of control | endpoint: median survival time, dose: 25.0 mg/kg/injection, schedule: Q01DX001 (oral), vehicle: Klucel (hydroxypropylcellulose) (HPC) 158 % of control
